The text below walks through data of ChEMBL document CHEMBL1201862, “PubChem BioAssay data set” (2004).

Structures are written as SMILES.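 Step 1: Grow cells in 96-well plates. Step 2: Expose to compound for 48 hours at 5 concentrations. Step 3: Interpolate endpoints linearly; if unreached, use highest concentration. GI50 = concentration required for 50% inhibition of growth.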 Active and inactive are the calls of the source. Rule as the data show it: active = GI50 up to about 1.1 µM and inactive = higher. Where only a bound is given, the exact number is not on record here.

Test systems include A549; HCT-15; HT-29; IGROV-1; K562; KM12; MCF7; MOLT-4; NCI-H522; NCI/ADR-RES; SF-295; SK-MEL-5; SK-OV-3; SN12C; SNB-19; SNB-75; T47D; TK-10; UO-31.
Holding throughout (test): NCI-60 cell line screen, 48 h

On to `O=[N+]([O-])c1ccc2nc(O)c(/C=C(\O)c3ccccc3)nc2c1`, for which the GI50 in the experiment with A549 is 7.64 µM (inactive); in the experiment with HCT-15 it was 11.5 µM; in the experiment with HT-29, > 100 µM (inactive); in the experiment on IGROV-1, 20.6 µM (inactive); in the experiment on K562, > 100 µM (inactive); in the experiment with KM12, 4.81 µM (inactive). The GI50 is 13.4 µM (inactive) in the experiment with MCF7; > 100 µM (inactive) in the experiment on MOLT-4; 12.5 µM (inactive) in the experiment with NCI-H522; 10 µM (inactive) in the experiment with NCI/ADR-RES; 18.8 µM (inactive) in the experiment on SF-295; 98.2 µM (inactive) in the experiment with SK-MEL-5. Besides, the GI50 with SK-OV-3 is 12.3 µM (inactive); in the experiment on SN12C it was 12.2 µM (inactive); in the experiment with SNB-19, 8.09 µM (inactive); with SNB-75, 16 µM (inactive); in the experiment with T47D, 61.7 µM (inactive); in the experiment with TK-10, 4.13 µM (inactive). Besides, in the experiment with UO-31, the GI50 is 48.9 µM (inactive).
Turning to `c1ccc(CNCCCNCCCCNCCCNCc2ccccc2)cc1`, the GI50 in the experiment with A549 was 14.4 µM (inactive); with HCT-15, 15.8 µM; in the experiment on HT-29, 1.92 µM (inactive); in the experiment with IGROV-1 it was 1.93 µM (inactive); with K562 it was 1.67 µM (inactive); with KM12, 5.52 µM (inactive). Further, the GI50 with MCF7 is 3.21 µM (inactive); in the experiment with MOLT-4, 0.834 µM (active); in the experiment on NCI-H522 it was 1.57 µM (inactive); in the experiment with NCI/ADR-RES, 38.7 µM (inactive); in the experiment with SF-295, 15.1 µM (inactive); with SK-MEL-5, 7.85 µM (inactive). For the same compound, the GI50 was 15.7 µM (inactive) with SK-OV-3; 3.72 µM (inactive) in the experiment on SN12C; 13.2 µM (inactive) in the experiment with SNB-19; 8.91 µM (inactive) with SNB-75; 10.8 µM (inactive) in the experiment on T47D; 5.69 µM (inactive) in the experiment on TK-10. In addition, in the experiment on UO-31, the GI50 was 12.2 µM (inactive).
In the case of `O[C@@H]1C[C@H](Cl)c2c(Cl)sc(Cl)c21`, the GI50 is > 100 µM (inactive) with A549; more than 100 µM in the experiment on HCT-15; > 100 µM (inactive) in the experiment on HT-29; > 100 µM (inactive) in the experiment on IGROV-1; > 100 µM (inactive) with K562; > 100 µM (inactive) in the experiment with KM12. The GI50 in the experiment with MCF7 was 13 µM (inactive); with MOLT-4, > 100 µM (inactive); in the experiment on NCI-H522, > 100 µM (inactive); with NCI/ADR-RES it was > 100 µM (inactive); in the experiment with SF-295, > 100 µM (inactive); in the experiment with SK-MEL-5, > 100 µM (inactive). Further, the GI50 with SK-OV-3 was > 100 µM (inactive); in the experiment on SN12C, > 100 µM (inactive); in the experiment on SNB-19 it was > 100 µM (inactive); with SNB-75, > 100 µM (inactive); in the experiment with T47D, 33.4 µM (inactive); in the experiment with TK-10 it was > 100 µM (inactive). Besides, the GI50 with UO-31 was > 100 µM (inactive).
Consider `O=C(CNc1ccc([N+](=O)[O-])cc1)Nn1c(-c2ccccc2)nc2ccccc2c1=O`, for which the GI50 in the experiment with A549 was 8.77 µM (inactive); with HCT-15, 2.93 µM; with HT-29, 3.06 µM (inactive); in the experiment on IGROV-1, 3.64 µM (inactive); in the experiment on K562, 1.91 µM (inactive); in the experiment with KM12 it was 4.56 µM (inactive). Further, the GI50 in the experiment on MCF7 was 2.52 µM (inactive); with MOLT-4, 1.89 µM (inactive); in the experiment with NCI-H522, 1.72 µM (inactive); in the experiment with NCI/ADR-RES, 2.33 µM (inactive); in the experiment on SF-295, 14.5 µM (inactive); in the experiment with SK-MEL-5, 1.04 µM (active). Besides, the GI50 in the experiment on SK-OV-3 is 3.97 µM (inactive); with SN12C it was 2.2 µM (inactive); in the experiment with SNB-19, 8.75 µM (inactive); in the experiment on SNB-75, 3.73 µM (inactive); with T47D it was 3.11 µM (inactive); in the experiment on TK-10 it was 6.15 µM (inactive). In addition, in the experiment with UO-31, the GI50 is 4.32 µM (inactive).
Take `CCC/C(Cl)=N\OC(=O)Nc1cccc(C(F)(F)F)c1`: the GI50 is 19.7 µM (inactive) in the experiment on A549; 13.5 µM in the experiment with HCT-15; 21.8 µM (inactive) in the experiment on HT-29; 17.1 µM (inactive) with IGROV-1; 2.28 µM (inactive) in the experiment on K562; 17.6 µM (inactive) in the experiment with KM12. Besides, the GI50 was 14 µM (inactive) with MCF7; 2.94 µM (inactive) in the experiment with MOLT-4; 1.96 µM (inactive) in the experiment on NCI-H522; 20.6 µM (inactive) with NCI/ADR-RES; 13.5 µM (inactive) with SF-295; 15.5 µM (inactive) with SK-MEL-5. In addition, the GI50 with SK-OV-3 is 13.6 µM (inactive); with SN12C, 15.1 µM (inactive); in the experiment with SNB-19, > 100 µM (inactive); in the experiment on SNB-75 it was 10.4 µM (inactive); in the experiment on T47D, 23.9 µM (inactive); with TK-10, 15.4 µM (inactive). Moreover, the GI50 in the experiment with UO-31 was 19.6 µM (inactive).
Regarding `Cc1ccc2c(n1)C(=O)C=CC2=O`, the GI50 in the experiment with A549 was 16.9 µM (inactive); with HCT-15 it was 9.48 µM; in the experiment with HT-29 it was 13.9 µM (inactive); with IGROV-1, 14.7 µM (inactive); with K562, 3.1 µM (inactive); in the experiment on KM12, 21.2 µM (inactive). Also, the GI50 in the experiment on MCF7 is 5.33 µM (inactive); with MOLT-4 it was 2.61 µM (inactive); in the experiment on NCI-H522, 1.91 µM (inactive); in the experiment on NCI/ADR-RES, 18.1 µM (inactive); in the experiment on SF-295 it was 18.2 µM (inactive); in the experiment with SK-MEL-5 it was 14.9 µM (inactive). The GI50 with SK-OV-3 was 18.3 µM (inactive); with SN12C it was 13.4 µM (inactive); in the experiment on SNB-19, 18 µM (inactive); in the experiment with SNB-75, 19.4 µM (inactive); in the experiment with T47D, 1.88 µM (inactive); in the experiment with TK-10, 2.52 µM (inactive). Moreover, the GI50 with UO-31 is 5.46 µM (inactive).
In the case of `Cc1ccc(S(=O)(=O)/N=C2/N(C)CCCS2(=O)=O)cc1`, the GI50 in the experiment with A549 was > 100 µM (inactive); in the experiment with HCT-15, more than 100 µM; in the experiment on HT-29, > 100 µM (inactive); with IGROV-1, > 100 µM (inactive); with K562, > 100 µM (inactive); with KM12, > 100 µM (inactive). Moreover, the GI50 with MCF7 is > 100 µM (inactive); in the experiment with MOLT-4 it was > 100 µM (inactive); with NCI-H522, > 100 µM (inactive); in the experiment on NCI/ADR-RES it was > 100 µM (inactive); in the experiment with SF-295 it was 0.17 µM (active); with SK-MEL-5 it was > 100 µM (inactive). The GI50 in the experiment on SK-OV-3, in the experiment with SN12C, in the experiment on SNB-19, in the experiment with SNB-75, in the experiment on T47D and with TK-10 was > 100 µM (inactive) in each case. In addition, the GI50 in the experiment on UO-31 is > 100 µM (inactive).
Consider `C=CCN(c1cc(OCc2ccccc2)c2c(c(C)cn2S(=O)(=O)c2ccc([N+](=O)[O-])cc2)c1[N+](=O)[O-])S(C)(=O)=O`, for which the GI50 was > 84.5 µM (inactive) with A549; 31.6 µM in the experiment with HCT-15; 8.77 µM (inactive) with HT-29; > 100 µM (inactive) with IGROV-1; 5.08 µM (inactive) in the experiment with K562; 4.86 µM (inactive) with KM12. In addition, the GI50 is > 100 µM (inactive) in the experiment on MCF7; > 100 µM (inactive) in the experiment on MOLT-4; > 100 µM (inactive) with NCI-H522; > 100 µM (inactive) in the experiment with NCI/ADR-RES; > 78.5 µM (inactive) in the experiment on SF-295; 43.7 µM (inactive) in the experiment with SK-MEL-5. Moreover, the GI50 with SK-OV-3 was > 100 µM (inactive); in the experiment with SN12C, > 100 µM (inactive); in the experiment on SNB-19, > 100 µM (inactive); with SNB-75 it was > 37.8 µM (inactive); in the experiment on T47D it was > 100 µM (inactive); with TK-10, > 100 µM (inactive). For the same compound, in the experiment on UO-31, the GI50 is > 100 µM (inactive).
